Several values for one entry are separate records, joined by “and”; a condition that tells them apart may be missing. Equal entries are not always repeated.
How the values were obtained:
[1] = xn = mol fraction of the nth substance listed; conditions: 101 kPa, Liquid, x2 = 0; for viscosity: Concentric cylinders viscometry; for mass density: Vibrating tube method
[2] = refractive index (Na D-line) (dimensionless); xn = mol fraction of the nth substance listed; conditions: 101 kPa, Liquid, Standard Abbe refractometry, x2 = 0
[3] = refractive index (Na D-line) (dimensionless); conditions: 101.33 kPa, Liquid, Standard Abbe refractometry
[4] = 101 kPa, Liquid; for viscosity: Concentric cylinders viscometry; for mass density: Vibrating tube method

CC(O)CO (stereo not drawn) [1,2-propanediol] + CCCCOC(=O)C(C)O
Conditions	mass density, [1] [kg/m3]	refractive index, [2]	viscosity, [1] [mPa·s]
288.15 K	1039.87	1.43437	82.54
293.15 K	1036.25	1.4327	59.62
298.15 K	1032.56	1.43102	44.03
303.15 K	1028.88	1.42934	33.16
308.15 K	1025.14	1.42764	25.45
313.15 K	1021.35	1.42591	19.85
318.15 K	1017.52	1.4242	15.73
323.15 K	1013.66	1.42246	12.64

CCCO [propan-1-ol] + CCCCOC(=O)C(C)O
Conditions	mass density, [1] [kg/m3]	refractive index, [2]	viscosity, [1] [mPa·s]
288.15 K	807.752	1.38751	2.514
293.15 K	803.767	1.38543	2.208
298.15 K	799.755	1.3834	1.95
303.15 K	795.717	1.38137	1.727
308.15 K	791.638	1.37918	1.542
313.15 K	787.521	1.37702	1.378
318.15 K	783.357	1.37482	1.236
323.15 K	779.137	1.37262	1.124

OCCCO [propan-1,3-diol]
Conditions	mass density, [4] [kg/m3]	refractive index, [3]	viscosity, [4] [mPa·s]
288.15 K	1055.96	1.44072	66.71
293.15 K	1052.86	1.43932	52.02
298.15 K	1049.75	1.43793	41.11
303.15 K	1046.63	1.43653	32.89
308.15 K	1043.5	1.43512	26.61
313.15 K	1040.35	1.43374	21.76
318.15 K	1037.17	1.43232	17.97
323.15 K	1033.98	1.43087	14.97

CC(O)CO (stereo not drawn) [1,2-propanediol]
Conditions	mass density, [4] [kg/m3]	refractive index, [3]	viscosity, [4] [mPa·s]
288.15 K	1039.87	1.43437	82.54
293.15 K	1036.25	1.4327	59.62
298.15 K	1032.56	1.43102	44.03
303.15 K	1028.88	1.42934	33.16
308.15 K	1025.14	1.42764	25.45
313.15 K	1021.35	1.42591	19.85
318.15 K	1017.52	1.4242	15.73
323.15 K	1013.66	1.42246	12.64

OCCCO [propan-1,3-diol] + CCCCOC(=O)C(C)O
Conditions	mass density, [1] [kg/m3]	refractive index, [2]	viscosity, [1] [mPa·s]
288.15 K	1055.96	1.44072	66.71
293.15 K	1052.86	1.43932	52.02
298.15 K	1049.75	1.43793	41.11
303.15 K	1046.63	1.43653	32.89
308.15 K	1043.5	1.43512	26.61
313.15 K	1040.35	1.43374	21.76
318.15 K	1037.17	1.43232	17.97
323.15 K	1033.98	1.43087	14.97

CCCCOC(=O)C(C)O (stereo not drawn) [butyl 2-hydroxypropanoate]
Conditions	mass density, [4] [kg/m3]	refractive index, [3]	viscosity, [4]
288.15 K	987.269	1.42379	4.628 mPa·s
293.15 K	982.366	1.42152	3.88 mPa·s
298.15 K	977.448	1.41925	3.307 mPa·s
303.15 K	972.515	1.41697	2.85 mPa·s and 2.86 mPa·s
308.15 K	967.567	1.41469 and 1.4147	2.481 mPa·s
313.15 K	962.603	1.4124 and 1.41241	2.181 mPa·s
318.15 K	957.624	1.41006 and 1.41005	1.935 mPa·s
323.15 K	952.631	1.40778	1.728 mPa·s

CCCO [propan-1-ol]
Conditions	mass density, [4] [kg/m3]	refractive index, [3]	viscosity, [4] [mPa·s]
288.15 K	807.752	1.38751	2.514
293.15 K	803.767	1.38543	2.208
298.15 K	799.755	1.3834	1.95
303.15 K	795.717	1.38137	1.727
308.15 K	791.638	1.37918	1.542
313.15 K	787.521	1.37702	1.378
318.15 K	783.357	1.37482	1.236
323.15 K	779.137	1.37262	1.124
